In the kinase profiling compilation of Christmann-Franck et al. (2016):
“And” between values parts separate entries of the source, which are not always exact repeats. Equal entries are not always repeated.

Tests used:
Assay in all cases: radiometric filter-binding kinase assay, Kinase HotSpot
Settings in all cases: compound 0.5 µM; ATP 10 µM
ABL1 (human) = ABL1 (human) (UniProt P00519)
ACVRL1 (human) = ACVRL1 (human) (UniProt P37023)
BRSK1 (human) = BRSK1 (human) (UniProt Q8TDC3)
BRSK2 (human) = BRSK2 (human) (UniProt Q8IWQ3)
CAMK4 (human) = CAMK4 (human) (UniProt Q16566)
CDK1 CCNA2 (human) = CDK1 CCNA2 (human) (UniProt P06493+P20248)
CDK3 CCNE1 (human) = CDK3 CCNE1 (human) (UniProt Q00526+P24864)
CDK6 CCND3 (human) = CDK6 CCND3 (human) (UniProt P30281+Q00534)
CDK9 CCNT1 (human) = CDK9 CCNT1 (human) (UniProt P50750+O60563)
CLK1 (human) = CLK1 (human) (UniProt P49759)
CLK3 (human) = CLK3 (human) (UniProt P49761)
CLK4 (human) = CLK4 (human) (UniProt Q9HAZ1)
CSK (human) = CSK (human) (UniProt P41240)
CSNK1A1 (human) = CSNK1A1 (human) (UniProt P48729)
CSNK1G3 (human) = CSNK1G3 (human) (UniProt Q9Y6M4)
DAPK3 (human) = DAPK3 (human) (UniProt O43293)
DYRK1A (human) = DYRK1A (human) (UniProt Q13627)
EGFR (human) = EGFR (human) (UniProt P00533)
EPHA6 (human) = EPHA6 (human) (UniProt Q9UF33)
EPHB3 (human) = EPHB3 (human) (UniProt P54753)
GRK7 (human) = GRK7 (human) (UniProt Q8WTQ7)
IRAK4 (human) = IRAK4 (human) (UniProt Q9NWZ3)
KDR (human) = KDR (human) (UniProt P35968)
MAP3K14 (human) = MAP3K14 (human) (UniProt Q99558)
MAP3K5 (human) = MAP3K5 (human) (UniProt Q99683)
MAP4K5 (human) = MAP4K5 (human) (UniProt Q9Y4K4)
MARK2 (human) = MARK2 (human) (UniProt Q7KZI7)
MARK3 (human) = MARK3 (human) (UniProt P27448)
MKNK2 (human) = MKNK2 (human) (UniProt Q9HBH9)
NEK6 (human) = NEK6 (human) (UniProt Q9HC98)
PIM1 (human) = PIM1 (human) (UniProt P11309)
PRKCI (human) = PRKCI (human) (UniProt P41743)
PRKG1 (human) = PRKG1 (human) (UniProt Q13976)
PRKX (human) = PRKX (human) (UniProt P51817)
RAF1 (human) = RAF1 (human) (UniProt P04049)
RET (human) = RET (human) (UniProt P07949)
STK24 (human) = STK24 (human) (UniProt Q9Y6E0)
STK25 (human) = STK25 (human) (UniProt O00506)
STK3 (human) = STK3 (human) (UniProt Q13188)
TGFBR2 (human) = TGFBR2 (human) (UniProt P37173)
TSSK1B (human) = TSSK1B (human) (UniProt Q9BXA7)
VRK1 (human) = VRK1 (human) (UniProt Q99986)
Sequence of VRK1 (human) (Q99986 whole entry, looked up): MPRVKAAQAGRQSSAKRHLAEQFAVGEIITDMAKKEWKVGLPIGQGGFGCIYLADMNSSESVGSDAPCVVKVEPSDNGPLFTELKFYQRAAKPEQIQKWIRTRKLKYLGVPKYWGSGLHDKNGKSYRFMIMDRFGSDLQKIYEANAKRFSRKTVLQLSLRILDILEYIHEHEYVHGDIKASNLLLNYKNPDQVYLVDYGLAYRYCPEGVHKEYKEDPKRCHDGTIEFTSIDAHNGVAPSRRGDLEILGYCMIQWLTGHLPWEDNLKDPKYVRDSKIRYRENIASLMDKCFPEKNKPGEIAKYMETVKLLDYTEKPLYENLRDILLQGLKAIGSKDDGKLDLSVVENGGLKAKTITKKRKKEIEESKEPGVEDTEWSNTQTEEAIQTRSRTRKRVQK

Sequence of PRKG1 (human) (Q13976 whole entry, looked up): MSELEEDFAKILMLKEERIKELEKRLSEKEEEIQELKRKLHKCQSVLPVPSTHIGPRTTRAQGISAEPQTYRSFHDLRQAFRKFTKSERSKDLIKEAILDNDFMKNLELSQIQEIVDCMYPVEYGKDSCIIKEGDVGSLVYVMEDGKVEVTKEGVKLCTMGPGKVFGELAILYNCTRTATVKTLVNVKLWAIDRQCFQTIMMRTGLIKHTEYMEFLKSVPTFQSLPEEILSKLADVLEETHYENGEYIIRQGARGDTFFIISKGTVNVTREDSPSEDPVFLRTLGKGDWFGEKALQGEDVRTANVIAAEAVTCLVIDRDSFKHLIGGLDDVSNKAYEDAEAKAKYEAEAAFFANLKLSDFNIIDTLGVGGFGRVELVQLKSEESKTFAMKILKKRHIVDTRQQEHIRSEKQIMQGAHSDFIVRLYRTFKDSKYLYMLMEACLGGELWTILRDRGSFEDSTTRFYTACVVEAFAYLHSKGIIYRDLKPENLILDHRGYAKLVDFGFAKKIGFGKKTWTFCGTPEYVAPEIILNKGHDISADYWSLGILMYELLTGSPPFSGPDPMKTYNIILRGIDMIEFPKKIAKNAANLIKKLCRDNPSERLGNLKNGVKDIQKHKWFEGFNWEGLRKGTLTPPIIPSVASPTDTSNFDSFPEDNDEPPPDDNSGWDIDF
Sequence of MAP3K14 (human) (Q99558 whole entry, looked up): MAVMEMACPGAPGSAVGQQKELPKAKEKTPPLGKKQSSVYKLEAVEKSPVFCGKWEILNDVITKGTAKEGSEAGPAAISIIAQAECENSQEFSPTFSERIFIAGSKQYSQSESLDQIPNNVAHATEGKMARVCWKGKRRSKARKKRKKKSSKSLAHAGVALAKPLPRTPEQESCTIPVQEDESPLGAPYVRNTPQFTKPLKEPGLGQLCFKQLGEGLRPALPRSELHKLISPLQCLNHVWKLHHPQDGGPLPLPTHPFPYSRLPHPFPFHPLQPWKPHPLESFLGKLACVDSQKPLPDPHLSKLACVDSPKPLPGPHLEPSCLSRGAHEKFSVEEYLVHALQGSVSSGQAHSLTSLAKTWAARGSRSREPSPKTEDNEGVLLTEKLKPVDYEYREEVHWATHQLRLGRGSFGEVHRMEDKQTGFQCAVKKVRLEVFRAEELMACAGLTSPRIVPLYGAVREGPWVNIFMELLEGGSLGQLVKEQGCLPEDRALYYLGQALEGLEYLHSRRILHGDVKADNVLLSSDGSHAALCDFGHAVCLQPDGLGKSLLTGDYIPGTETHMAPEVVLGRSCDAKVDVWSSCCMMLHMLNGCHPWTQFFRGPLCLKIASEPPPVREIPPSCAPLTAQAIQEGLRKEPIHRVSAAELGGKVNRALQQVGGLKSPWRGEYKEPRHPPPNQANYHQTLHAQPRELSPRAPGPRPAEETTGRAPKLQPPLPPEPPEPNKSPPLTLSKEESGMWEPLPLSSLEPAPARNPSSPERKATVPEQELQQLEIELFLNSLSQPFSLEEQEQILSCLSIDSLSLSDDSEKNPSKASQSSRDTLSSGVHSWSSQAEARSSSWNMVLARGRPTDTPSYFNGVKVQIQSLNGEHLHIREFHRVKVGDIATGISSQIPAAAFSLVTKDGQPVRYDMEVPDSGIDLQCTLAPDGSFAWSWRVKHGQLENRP
Sequence of EPHA6 (human) (Q9UF33 whole entry, looked up): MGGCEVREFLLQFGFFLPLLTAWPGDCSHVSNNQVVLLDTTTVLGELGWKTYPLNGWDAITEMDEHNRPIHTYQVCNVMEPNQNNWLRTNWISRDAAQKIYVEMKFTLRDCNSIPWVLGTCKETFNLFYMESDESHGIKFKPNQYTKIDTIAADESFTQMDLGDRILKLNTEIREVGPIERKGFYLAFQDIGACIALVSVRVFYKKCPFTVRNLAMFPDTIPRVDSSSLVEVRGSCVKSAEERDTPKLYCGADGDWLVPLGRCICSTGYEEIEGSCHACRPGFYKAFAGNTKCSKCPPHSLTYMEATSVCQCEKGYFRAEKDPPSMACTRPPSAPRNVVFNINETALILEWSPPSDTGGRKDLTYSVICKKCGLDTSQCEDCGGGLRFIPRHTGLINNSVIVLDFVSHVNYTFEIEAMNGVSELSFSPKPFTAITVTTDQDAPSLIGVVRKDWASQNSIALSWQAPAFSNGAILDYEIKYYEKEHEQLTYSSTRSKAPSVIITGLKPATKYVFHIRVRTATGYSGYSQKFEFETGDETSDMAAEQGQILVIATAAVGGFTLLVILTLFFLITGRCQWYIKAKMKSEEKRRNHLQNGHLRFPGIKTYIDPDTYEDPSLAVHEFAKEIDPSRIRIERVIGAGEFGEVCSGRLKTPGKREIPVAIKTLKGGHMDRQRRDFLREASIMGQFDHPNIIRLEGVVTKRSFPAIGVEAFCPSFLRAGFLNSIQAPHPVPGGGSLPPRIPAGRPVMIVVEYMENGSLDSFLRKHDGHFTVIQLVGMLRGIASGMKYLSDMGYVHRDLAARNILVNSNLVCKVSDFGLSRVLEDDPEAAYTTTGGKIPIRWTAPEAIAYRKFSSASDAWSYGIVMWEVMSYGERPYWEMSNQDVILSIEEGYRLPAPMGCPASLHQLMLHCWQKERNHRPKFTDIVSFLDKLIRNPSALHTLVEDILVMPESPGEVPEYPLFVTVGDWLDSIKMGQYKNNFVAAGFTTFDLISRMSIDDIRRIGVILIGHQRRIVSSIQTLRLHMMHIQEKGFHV
Sequence of CSK (human) (P41240 whole entry, looked up): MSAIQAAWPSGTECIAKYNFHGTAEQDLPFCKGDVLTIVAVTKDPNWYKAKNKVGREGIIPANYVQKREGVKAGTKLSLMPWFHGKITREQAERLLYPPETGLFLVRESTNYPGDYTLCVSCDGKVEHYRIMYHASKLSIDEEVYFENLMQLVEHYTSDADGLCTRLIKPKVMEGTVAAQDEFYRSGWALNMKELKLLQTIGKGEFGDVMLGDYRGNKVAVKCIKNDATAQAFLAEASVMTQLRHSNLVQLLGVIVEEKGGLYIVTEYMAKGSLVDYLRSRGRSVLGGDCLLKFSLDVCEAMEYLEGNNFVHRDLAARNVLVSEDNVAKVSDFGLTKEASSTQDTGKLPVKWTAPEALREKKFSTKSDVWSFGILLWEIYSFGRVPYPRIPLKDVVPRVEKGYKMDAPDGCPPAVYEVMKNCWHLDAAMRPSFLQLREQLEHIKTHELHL
Sequence of BRSK1 (human) (Q8TDC3 whole entry, looked up): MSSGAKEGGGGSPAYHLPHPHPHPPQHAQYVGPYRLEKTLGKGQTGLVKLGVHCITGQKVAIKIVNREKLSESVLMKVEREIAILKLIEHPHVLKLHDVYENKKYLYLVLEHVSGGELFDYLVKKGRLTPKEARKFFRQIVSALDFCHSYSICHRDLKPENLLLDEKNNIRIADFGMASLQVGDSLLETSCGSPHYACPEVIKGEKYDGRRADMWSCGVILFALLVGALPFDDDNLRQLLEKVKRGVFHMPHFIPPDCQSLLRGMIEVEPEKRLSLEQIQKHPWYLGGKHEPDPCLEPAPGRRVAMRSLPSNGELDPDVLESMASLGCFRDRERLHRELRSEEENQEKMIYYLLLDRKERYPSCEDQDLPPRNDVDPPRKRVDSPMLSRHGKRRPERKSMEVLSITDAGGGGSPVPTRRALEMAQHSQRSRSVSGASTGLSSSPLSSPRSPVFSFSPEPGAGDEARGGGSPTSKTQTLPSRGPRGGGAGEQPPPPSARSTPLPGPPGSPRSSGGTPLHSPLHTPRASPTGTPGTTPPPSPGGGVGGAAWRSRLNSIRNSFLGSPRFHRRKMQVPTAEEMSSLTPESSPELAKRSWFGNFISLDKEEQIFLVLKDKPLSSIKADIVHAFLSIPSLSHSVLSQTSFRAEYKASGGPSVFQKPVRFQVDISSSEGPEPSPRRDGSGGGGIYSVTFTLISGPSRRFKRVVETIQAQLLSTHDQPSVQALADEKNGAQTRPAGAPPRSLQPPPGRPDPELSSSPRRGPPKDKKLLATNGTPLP
Sequence of CLK3 (human) (P49761 whole entry, looked up): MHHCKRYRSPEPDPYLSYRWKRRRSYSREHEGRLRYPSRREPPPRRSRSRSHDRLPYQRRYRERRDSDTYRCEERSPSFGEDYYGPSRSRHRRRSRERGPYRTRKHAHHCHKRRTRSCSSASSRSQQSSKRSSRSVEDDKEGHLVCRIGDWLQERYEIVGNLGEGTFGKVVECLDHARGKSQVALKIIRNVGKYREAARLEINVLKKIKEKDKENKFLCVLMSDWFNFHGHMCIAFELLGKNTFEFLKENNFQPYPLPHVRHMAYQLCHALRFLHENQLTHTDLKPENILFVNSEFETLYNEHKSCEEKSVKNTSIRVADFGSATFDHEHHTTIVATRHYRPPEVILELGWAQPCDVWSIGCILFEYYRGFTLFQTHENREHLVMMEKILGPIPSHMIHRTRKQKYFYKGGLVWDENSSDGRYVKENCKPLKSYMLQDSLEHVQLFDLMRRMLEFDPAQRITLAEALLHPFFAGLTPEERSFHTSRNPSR

## Nc1ccc2ncnc(NCCc3ccc(Oc4ccccc4)cc3)c2c1
ABL1 (human)
  residual activity: 89.7%
ACVRL1 (human)
  residual activity: 93.5%
BRSK1 (human)
  residual activity: 101%
BRSK2 (human)
  residual activity: 102%
CAMK4 (human)
  residual activity: 98.9%
CDK1 CCNA2 (human)
  residual activity: 98.9%
CDK3 CCNE1 (human)
  residual activity: 94.8%
CDK6 CCND3 (human)
  residual activity: 100%
CDK9 CCNT1 (human)
  residual activity: 101%
CLK1 (human)
  residual activity: 101%
CLK3 (human)
  residual activity: 117%
CLK4 (human)
  residual activity: 94.6%
CSK (human)
  residual activity: 96.7%
CSNK1A1 (human)
  residual activity: 102%
CSNK1G3 (human)
  residual activity: 96.8%
DAPK3 (human)
  residual activity: 104%
DYRK1A (human)
  residual activity: 101%
EGFR (human)
  residual activity: 112%
EPHA6 (human)
  residual activity: 92.8%
EPHB3 (human)
  residual activity: 97.3%
GRK7 (human)
  residual activity: 104%
IRAK4 (human)
  residual activity: 92.4%
KDR (human)
  residual activity: 91.7%
MAP3K14 (human)
  residual activity: 109%
MAP3K5 (human)
  residual activity: 105%
MAP4K5 (human)
  residual activity: 94.8%
MARK2 (human)
  residual activity: 84.9%
MARK3 (human)
  residual activity: 86.4%
MKNK2 (human)
  residual activity: 104%
NEK6 (human)
  residual activity: 103%
PIM1 (human)
  residual activity: 102%
PRKCI (human)
  residual activity: 103%
PRKG1 (human)
  residual activity: 93.1% and 94.5%
PRKX (human)
  residual activity: 104%
RAF1 (human)
  residual activity: 98.2%
RET (human)
  residual activity: 101%
STK24 (human)
  residual activity: 107%
STK25 (human)
  residual activity: 116%
STK3 (human)
  residual activity: 105%
TGFBR2 (human)
  residual activity: 110%
TSSK1B (human)
  residual activity: 100%
VRK1 (human)
  residual activity: 99.5%

## O=C1NC(=O)/C(=C/c2ccc3c(c2)OC(F)(F)O3)S1
ABL1 (human)
  residual activity: 98.5%
ACVRL1 (human)
  residual activity: 97.1%
BRSK1 (human)
  residual activity: 88%
BRSK2 (human)
  residual activity: 90.9%
CAMK4 (human)
  residual activity: 101%
CDK1 CCNA2 (human)
  residual activity: 97.2%
CDK3 CCNE1 (human)
  residual activity: 99.4%
CDK6 CCND3 (human)
  residual activity: 92.6%
CDK9 CCNT1 (human)
  residual activity: 98.7%
CLK1 (human)
  residual activity: 102%
CLK3 (human)
  residual activity: 96.8%
CLK4 (human)
  residual activity: 88.8%
CSK (human)
  residual activity: 88%
CSNK1A1 (human)
  residual activity: 88.4%
CSNK1G3 (human)
  residual activity: 91.4%
DAPK3 (human)
  residual activity: 104%
DYRK1A (human)
  residual activity: 84.6%
EGFR (human)
  residual activity: 85.1%
EPHA6 (human)
  residual activity: 83.1%
EPHB3 (human)
  residual activity: 93.1%
GRK7 (human)
  residual activity: 102%
IRAK4 (human)
  residual activity: 99.2%
KDR (human)
  residual activity: 94.6%
MAP3K14 (human)
  residual activity: 106%
MAP3K5 (human)
  residual activity: 105%
MAP4K5 (human)
  residual activity: 88.1%
MARK2 (human)
  residual activity: 96.8%
MARK3 (human)
  residual activity: 92.3%
MKNK2 (human)
  residual activity: 98.3%
NEK6 (human)
  residual activity: 113%
PIM1 (human)
  residual activity: 35.9%
PRKCI (human)
  residual activity: 95.9%
PRKG1 (human)
  residual activity: 109% and 95.6%
PRKX (human)
  residual activity: 101%
RAF1 (human)
  residual activity: 95.5%
RET (human)
  residual activity: 102%
STK24 (human)
  residual activity: 91.9%
STK25 (human)
  residual activity: 95.7%
STK3 (human)
  residual activity: 100%
TGFBR2 (human)
  residual activity: 107%
TSSK1B (human)
  residual activity: 93.3%
VRK1 (human)
  residual activity: 85.6%
